PubChem BioAssay AID1324 (NMMLSC, 2008)
The source made the active and inactive calls. How the calls were made is not given here.

Molecular target: glutathione S-transferase (GST-GSH binding)
Assay: GST–glutathione interaction disruption – biochemical, multiplex beads, flow cytometry, HPSMTB buffer, profiling panel (AID 1324);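 further: glutathione beads loaded with GST-green fluorescent protein and no fluorescent Bim peptide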
Conditions: multiplex bead flow cytometry, MCF, concentration not given here

SMILES	percent span inhibition
Cc1[nH]c2ccccc2c1C(=O)COC(=O)c1c(-c2c(F)cccc2Cl)noc1C	inactive
COc1ccc(NC(=O)c2ccc3c(c2)NC(=O)CS3)cc1S(=O)(=O)Nc1ccc(Br)cc1	inactive
O=C(CNC(=O)c1ccc(S(=O)(=O)N2CCCC2)cc1)N/N=C/c1ccc(Cl)cc1Cl	inactive
O=C(CCl)Nc1cccc2ncccc12	inactive
Cc1csc(Nc2ccccc2C(F)(F)F)n1	inactive
N#Cc1ccc(N=c2ssnc2Cl)cc1	inactive
O=C(/C=C/c1c(F)cccc1Cl)Nc1ccncc1	inactive
O=C1NC(=O)C(=Cc2ccc(-c3cc(Cl)ccc3[N+](=O)[O-])o2)C(=O)N1	inactive
COc1ccccc1Oc1ccc2c(c1)C(=O)N(c1cccc3ncccc13)C2=O	inactive
COc1cccc(/C=C2/SC(=O)N(C)C2=O)c1OCc1ccc(C(=O)O)cc1	inactive
Cn1c(=O)[nH]c(=O)c2c1nc(N1CCOCC1)n2CCSc1nc2ccccc2[nH]1	inactive
COc1ccc(/C=C(/C(=O)c2cccs2)N2C=CC=CC2=C(C#N)C#N)cc1	inactive
COc1c(C)cc(Br)cc1C(=O)Nc1ccc(S(N)(=O)=O)cc1	inactive
COc1ccccc1-n1c(-c2ccccc2)c[nH]c1=S	inactive
CCn1cc(C=C2C(=O)c3ccccc3C2=O)c2ccccc21	inactive
COc1ccc(CN(CC(=O)NC2CCCC2)C(=O)CCC(=O)Nc2cc(C)on2)cc1	inactive
Cc1ccc(-n2c(CSc3nc(C)cc(C)n3)nnc2SCC(=O)NCc2ccco2)cc1	inactive
CCC(CC)C(=O)Nc1cccc(S(=O)(=O)c2cccc(NC(=O)C(CC)CC)c2)c1	inactive
Cc1cc(-c2csc(N)n2)c(C)n1CCC(C)C	inactive
O=C1C(=O)c2ccc(-c3ccccc3)cc2-c2ccccc21	inactive
OC(COc1ccc2cc(Br)ccc2c1)CN1CCOCC1 (stereo not given)	inactive
O=C(/C=C/c1ccccc1Cl)c1ccccc(=O)c1O	inactive
Cc1nnc(Sc2cc(NCCCO)c([N+](=O)[O-])c3nonc23)s1	inactive
O=C(O)CCN1C(=O)/C(=C\c2ccc(-c3nc4ccccc4s3)o2)SC1=S	inactive
O=C(Nc1nnc(SCc2ccccn2)s1)C1CC(=O)N(c2ccccc2)C1 (stereo not given)	inactive

SMILES	percent span inhibition
COc1ccc(C)cc1-n1c(=O)c2ccccc2c2ccccc2c1=O	inactive
O=[N+]([O-])c1c(NCCCO)cc(Sc2nc3ccccc3s2)c2nonc12	inactive
O=C(NCCN1CCOCC1)c1cc(Cl)ccc1[N+](=O)[O-]	inactive
CCC(CC)C(=O)Nc1cccc(SC)c1	inactive
NC(=O)c1c(NC(=O)C2CCCO2)sc2c1CCCC2 (stereo not given)	inactive
CCN(CC)c1ccc(-c2nn3c(-c4ccccc4OC)nnc3s2)cc1	inactive
O=C(NCCCN1CCN(CCCNC(=O)c2cc([N+](=O)[O-])ccc2Cl)CC1)c1cc([N+](=O)[O-])ccc1Cl	inactive
Cc1cc(C)c2nc3nc(C)c(C)cc3c(N)c2c1	inactive
CCN1CCN(c2ccc(NC(=O)c3cccc4ncccc34)cc2)CC1	inactive
Cc1ccc(CC(=O)OCCNC(=O)c2cccnc2)cc1	inactive
COc1ccccc1N(C)S(=O)(=O)c1ccc(C(=O)OCC(N)=O)cc1	inactive
Cc1cc(N2CCN(C)CC2)nc2ccc(NC(=S)N3CCCCC3)cc12	inactive
Cc1ccc(/C=N/N(C)C2=NS(=O)(=O)c3ccccc32)o1	inactive
O=C(CSc1nnc(-c2ccccc2)c(-c2ccccc2)n1)N1CCc2ccccc21	inactive
Clc1ccc(N=c2ssnc2Cl)nc1	inactive
O=C(Nc1ccc(N2CCOCC2)cc1)Nc1ccc2nc(-c3ccco3)c(-c3ccco3)nc2c1	inactive
COc1ccc(N2C(=O)/C(=C/c3cccs3)NC2=S)cc1	inactive
COc1ccc(-c2noc(COc3ccc4c(c3)OCO4)n2)cc1OC	inactive
CC1(C)Cc2c(ccc3ccccc23)/C(=C/C(=O)N2CCCCC2)N1	inactive
CCN1CCN(c2cc(C)c3cc(NC(=S)N4CC(C)CC(C)C4)ccc3n2)CC1 (stereo not given)	inactive
CCN(CC)S(=O)(=O)c1cccc(C(=O)N/N=C/c2ccc(O)c(O)c2O)c1	inactive
Cc1ccnc(NS(=O)(=O)c2ccc(NC(=O)c3c(-c4ccccc4Cl)noc3C)cc2)n1	inactive
CN(CCO)c1cc(Sc2nc3ccccc3s2)c2nonc2c1[N+](=O)[O-]	inactive
CCc1nnc(NC(=O)CSc2nnc(COc3ccc(C)cc3)n2-c2ccccc2)s1	inactive
c1ccc2c(N3CCOCC3)nc(N3CCOCC3)nc2c1	inactive

SMILES	percent span inhibition
COc1ccc(-c2csc(NC(=O)/C(N=Nc3ccccc3)=C(\C)O)n2)cc1	inactive
Cc1cccc(OCC(=O)NCC(=O)N/N=C/c2cc(Br)ccc2OCc2ccccc2)c1	inactive
Nc1cccc(-c2cn3cccnc3n2)c1	inactive
CCCC1(C(=O)OCC)NC(c2cc(OC)c(OC)c(OC)c2)C2C(=O)N(CC)C(=O)C21 (stereo not given)	inactive
CC(C)C(=O)NC(c1ccccc1)c1cc([N+](=O)[O-])c2cccnc2c1O (stereo not given)	inactive
Cc1cccc(Nc2nc(-c3ccncc3)cs2)c1	inactive
CCSc1ncnc2sc(C)c(C)c12	inactive
Oc1ccc(NCc2ccccc2OCc2ccccc2)cc1	inactive
COC(=O)c1ccc(C)c(NC(=O)CCNC(=O)c2ccc([N+](=O)[O-])cc2)c1	inactive
Cc1cccc(N2C(S)=C(C#N)C(=O)NC2c2cccs2)c1 (stereo not given)	inactive
Cc1ccc(NC2=C(Cl)C(=O)c3ccccc3C2=O)cc1	inactive
COc1ccc(N2C(=O)C(Cl)=C(Oc3cccc(OC)c3)C2=O)cc1	inactive
Cc1cc(C)cc(NS(=O)(=O)c2ccc3c(c2)c(=O)n(C)c(=O)n3C)c1	inactive
CCOc1ccc(C2=Nn3c(nnc3-c3ccco3)SC2)cc1	inactive
Cc1ccc(CNc2ccc3c(c2)OCO3)c(C)c1	inactive
COCCNC(=S)Nc1cc(OC)c(OC)cc1C#N	inactive
O=C(c1cnccn1)N(Cc1cccs1)C1(C(=O)NC2CCCCC2)CCCCC1	inactive
O=C(NC1=NCCS1)NC12CC3CC(CC(C3)C1)C2	inactive
COC(=O)/C(=C/c1ccc(F)cc1)NC(C)=O	inactive
Cc1noc(C)c1COc1ccc(C(=O)Nc2cccnc2)cc1	inactive
CCOC(=O)c1c(NC(=O)c2ccccc2N(C)S(=O)(=O)c2ccccc2)sc2c1CCCC2	inactive
CCOC(=O)/C(=C\c1cccc(O)c1)c1nc2sc(C)c(C)c2c(=O)[nH]1	inactive
CCN(CC)c1ccc(-c2nn3c(-c4n[nH]c5c4CCC5)nnc3s2)cc1	inactive
Clc1ccc2c(N/N=C/c3ccc(Br)cc3)ccnc2c1	inactive
O=C(CC1NCCNC1=O)Nc1cccc([N+](=O)[O-])c1 (stereo not given)	inactive

SMILES	percent span inhibition
CSc1n[nH]c2nc3c(c(=O)n12)C1(CCCC1)Cc1ccccc1-3	inactive
Cc1ccc(-c2nc3c(c(=O)[nH]c(=O)n3Cc3ccccc3)n2Cc2ccccc2)o1	inactive
Fc1ccc(C2=Nn3c(Cc4ccccc4F)nnc3SC2)cc1	inactive
Clc1ccc2c(N/N=C/c3ccccc3Br)ccnc2c1	inactive
Cc1ccc(/C=C/C(=O)c2ccccc(=O)c2O)c(C)c1	inactive
O=C(C1=NN[C@@H]2C(=O)N(c3ccccc3C(F)(F)F)C(=O)[C@H]12)c1ccc2ccccc2n1	inactive
COc1cc(/C=C2\SC(=S)NC2=O)ccc1OS(=O)(=O)c1ccccc1	inactive
CC(C)(C)c1nc(NCCN2CCOCC2)c2nnn(Cc3ccccc3Cl)c2n1	inactive
Cc1ccc(/C=C2/NC(=O)N(Cc3ccccc3)C2=O)o1	inactive
COc1cc2c(cc1OC)C(c1ccccc1F)OC(=O)C2 (stereo not given)	inactive
Cc1ccc(NC(=S)N2CCn3cccc3C2c2cccnc2)cc1 (stereo not given)	inactive
O=C(NCc1ccccn1)c1ccc2nc(-c3ccco3)c(-c3ccco3)nc2c1	inactive
NNC(=O)COc1ccccc1F	inactive
O=C(CCc1ccccc1)N1CCN(c2ccccn2)CC1	inactive
Cc1cc(N2CCN(C)CC2)nc2ccc(NC(=S)N3CCN(c4ccc(F)cc4)CC3)cc12	inactive
Cc1cccc(-n2c(-c3ccncc3)n[nH]c2=S)c1	inactive
CCOC(=O)CSC1=NC(=O)/C(=C/c2ccc(Br)cc2)S1	inactive
COc1ccc2c3c(cccc13)N(C)N=C2C	inactive
Cc1ccc(-c2cc(-c3ccc4c(c3)OCO4)c(C#N)c(N)n2)o1	inactive
COc1ccc2nc(C)cc(SCC(=O)N/N=C/c3ccc(O)c(O)c3)c2c1	inactive
Cc1onc(-c2ccccc2)c1C(=O)Nc1nnc(COc2ccc(Cl)cc2)s1	inactive
CN(CCc1ccccn1)C(=O)CCC1CCCN(C(=O)NC2CCCCC2)C1 (stereo not given)	inactive
Cc1cc(C)n(CC(=O)N/N=C/c2cccc([N+](=O)[O-])c2)n1	inactive
c1coc(C2=Nc3cccc4cccc(c34)N2)c1	inactive
CN1CCN(c2ccccc2N)CC1	inactive
